This experiment has as its target human RAF1 (Homo sapiens (Human), UniProt P04049). Description: Protein kinase assay (radiometric 33P-ATP, MEK1 (K97R) substrate). Particulars: read-out: RAF-1 IC50. Format: biochemical. The method, then:
Protein kinase assay: Assay platform was used to measure kinase/inhibitor interactions as described previously (Anastassiadis et al., 2011). In brief, for each reaction, kinase and substrate were mixed in a buffer containing 20 mM HEPES (pH 7.5), 10 mM MgCl2, 1 mM EGTA, 0.02% Brij35, 0.02 mg/mL BSA, 0.1 mM Na3VO4, 2 mM DTT, and 1% DMSO. All compounds were solubilized in DMSO. Compounds were then added to each reaction mixture via acoustic dispense using an ECHO 550 nanoliter dispenser. For human RAF1 testing, human MEK1 (K97R) was used as a substrate at a concentration of 3 micromolar, with a final ATP concentration of 10 micromolar. For human BRAF testing, human MEK1 (K97R) was used as a substrate at 1 micromolar concentration, with a final ATP concentration of 25 micromolar. […] After a 20-min incubation, ATP (Sigma-Aldrich, St. Louis, Mo. 63178) and [g33P] ATP (specific activity 10 microCi/microliter) purchased at PerkinElmer (Boston, Mass., 02118 Cat #BLU 003H250UC) were added at a final total concentration of 10 mM. Reactions were carried out at room temperature for 2 hr and spotted onto P81 ionexchange cellulose chromatography paper (Reaction Biology). Filter paper was washed in 0.75% phosphoric acid to remove unincorporated ATP. The percent remaining kinase activity relative to a vehicle-containing (DMSO) kinase reaction was calculated for each kinase/inhibitor pair. IC50 values were calculated using Prism 5 (GraphPad).

Setting [1] is: human MEK1 (K97R) substrate 3 micromolar, ATP 10 micromolar, 10-dose IC50 mode.

SMILES strings stand for the structures. pIC50: −log10 of the molar value. Read-outs that look alike come from different tables or passages of the source.

As usually defined, the pIC50 is −log10 of the IC50, conventionally taken in molar units.

human RAF1, sequence (P04049 whole entry): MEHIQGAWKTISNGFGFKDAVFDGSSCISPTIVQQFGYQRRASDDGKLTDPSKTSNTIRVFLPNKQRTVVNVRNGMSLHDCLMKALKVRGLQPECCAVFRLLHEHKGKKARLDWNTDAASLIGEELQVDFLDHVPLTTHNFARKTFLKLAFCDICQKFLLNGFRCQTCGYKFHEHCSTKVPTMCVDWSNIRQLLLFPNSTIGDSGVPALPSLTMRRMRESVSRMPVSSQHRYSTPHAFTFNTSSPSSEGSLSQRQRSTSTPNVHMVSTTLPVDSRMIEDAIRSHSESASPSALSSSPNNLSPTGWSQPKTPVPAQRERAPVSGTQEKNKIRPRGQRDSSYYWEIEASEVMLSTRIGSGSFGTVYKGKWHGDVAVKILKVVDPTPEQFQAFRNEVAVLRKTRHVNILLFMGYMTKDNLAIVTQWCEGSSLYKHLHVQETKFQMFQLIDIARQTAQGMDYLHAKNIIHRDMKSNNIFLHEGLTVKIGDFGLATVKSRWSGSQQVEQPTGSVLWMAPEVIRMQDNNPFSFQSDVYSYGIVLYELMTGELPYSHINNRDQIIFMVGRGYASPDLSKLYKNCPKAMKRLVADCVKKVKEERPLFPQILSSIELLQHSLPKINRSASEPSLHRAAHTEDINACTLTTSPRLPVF

Consider `CNc1ncc2cc(-c3cc(NC(=O)N4CCC(C(F)(F)F)C4)ccc3C)c(C)nc2n1` (centres unmarked) [Example 14, N-(4-methyl-3-(7-methyl-2-(methylamino)pyrido[2,3-d]pyrimidin-6-yl)phenyl)-3-(trifluoromethyl)pyrrolidine-1-carboxamide], for which, under setting [1], the negative logarithm of the IC50 (pIC50) was ≥ 8.00.

Turning to `CNc1ncc2cc(-c3cc(NC(=O)c4cncc(C(F)(F)F)c4)ccc3C)c(C)nc2n1` [Example 32, N-(4-methyl-3-(7-methyl-2-(methylamino)pyrido[2,3-d]pyrimidin-6-yl)phenyl)-5-(trifluoromethyl)nicotinamide], the pIC50 under setting [1] is ≥ 8.00.

Consider `CNc1ncc2cc(-c3cc(NC(=O)c4ccnc(C(F)(F)F)c4)ccc3C)cnc2n1` [Example 53, N-[4-methyl-3-[2-(methylamino)pyrido[2,3-d]pyrimidin-6-yl]phenyl]-2-(trifluoromethyl)pyridine-4-carboxamide], for which the pIC50 under setting [1] is ≥ 8.00.

With `CNc1ncc2cc(-c3cc(NC(=O)c4ccnc(C(F)(F)F)c4)ccc3C)c(C)nc2n1` [Example 6, N-[4-methyl-3-[7-methyl-2-(methylamino)pyrido[2,3-d]pyrimidin-6-yl]phenyl]-2-(trifluoromethyl)pyridine-4-carboxamide], the pIC50 was ≥ 8.00.

Turning to `CNc1ncc2cc(-c3cc(NC(=O)N4CC[C@@H](SC(F)(F)F)C4)ccc3C)c(C)nc2n1` [Example 4], the pIC50 was 7.00 to 8.00.

Take `CNc1ncc2cc(-c3cc(NC(=O)c4cccc(C(F)(F)F)c4)ccc3C)c(C)nc2n1` [Example 29, N-(4-methyl-3-(7-methyl-2-(methylamino)pyrido[2,3-d]pyrimidin-6-yl)phenyl)-3-(trifluoromethyl)benzamide]: under setting [1], the pIC50 is ≥ 8.00.

Consider `CNc1ncc2cc(-c3cc(NC(=O)c4cccc(C(F)(F)F)c4C)cnc3C)cnc2n1` [Example 47, 2-methyl-N-(6-methyl-5-(2-(methylamino)pyrido[2,3-d]pyrimidin-6-yl)pyridin-3-yl)-3-(trifluoromethyl)benzamide], for which the pIC50 under setting [1] was ≥ 8.00.

Consider `CNc1ncc2cc(-c3cc(NC(=O)N4CC[C@H](OC(F)(F)F)C4)c(F)cc3C)cnc2n1` [Example 59], for which the pIC50 under setting [1] is ≥ 8.00.

As to `Cc1ccc(NC(=O)c2ccnc(C(F)(F)F)c2)cc1-c1cc2cnc(NC3CCN(C)CC3)nc2nc1C` [Example 42, N-(4-methyl-3-(7-methyl-2-((1-methylpiperidin-4-yl)amino)pyrido[2,3-d]pyrimidin-6-yl)phenyl)-2-(trifluoromethyl)isonicotinamide], the pIC50 under setting [1] is ≥ 8.00.

Turning to `CNc1ncc2cc(-c3cc(NC(=O)N4CCO[C@@H](C(F)(F)F)C4)c(F)cc3C)c(C)nc2n1` [Example 10, (2R)-N-[2-fluoro-4-methyl-5-[7-methyl-2-(methylamino)pyrido[2,3-d]pyrimidin-6-yl]phenyl]-2-(trifluoromethyl)morpholine-4-carboxamide], the pIC50 under setting [1] is ≥ 8.00.

As for `CNc1ncc2cc(-c3cc(NC(=O)c4ccnc(C(F)(F)F)c4)ccc3C)c(C(F)(F)F)nc2n1` [Example 73, N-[4-methyl-3-[2-(methylamino)-7-(trifluoromethyl)pyrido[2,3-d]pyrimidin-6-yl]phenyl]-2-(trifluoromethyl)pyridine-4-carboxamide], the pIC50 under setting [1] is ≥ 8.00.

With `CNc1ncc2cc(-c3cc(NC(=O)N4CCO[C@H](C(F)(F)F)C4)c(F)cc3C)c(C)nc2n1` [Example 11, (2S)-N-[2-fluoro-4-methyl-5-[7-methyl-2-(methylamino)pyrido[2,3-d]pyrimidin-6-yl]phenyl]-2-(trifluoromethyl)morpholine-4-carboxamide], under setting [1], the pIC50 was ≥ 8.00.

For the compound `CNc1ncc2cc(-c3cc(NC(=O)N4CC=C(C(F)(F)F)C4)c(F)cc3C)c(C)nc2n1` [Example 3, N-(2-fluoro-4-methyl-5-(7-methyl-2-(methylamino)pyrido[2,3-d]pyrimidin-6-yl)phenyl)-3-(trifluoromethyl)-2,5-dihydro-1H-pyrrole-1-carboxamide], under setting [1], the pIC50 was ≥ 8.00.

`CNc1ncc2cc(-c3cc(NC(=O)N4CCC(C(F)(F)F)C4)ccc3C)cnc2n1` (stereo in doubt) [Example 55, (3S)—N-[4-methyl-3-[2-(methylamino)pyrido[2,3-d]pyrimidin-6-yl]phenyl]-3-(trifluoromethyl)pyrrolidine-1-carboxamide]: the pIC50 is ≥ 8.00.

`CNc1ncc2cc(-c3cc(NC(=O)c4cc(C(F)(F)F)ccn4)ccc3C)c(C)nc2n1` [Example 27]: under setting [1], the pIC50 was ≥ 8.00.

As to `CNc1ncc2cc(-c3cc(NC(=O)N4CC[C@@H](OCC(F)(F)F)C4)c(F)cc3C)c(C)nc2n1` [Example 51, (3R)-N-[2-fluoro-4-methyl-5-[7-methyl-2-(methylamino)pyrido[2,3-d]pyrimidin-6-yl]phenyl]-3-(2,2,2-trifluoroethoxy)pyrrolidine-1-carboxamide], under setting [1], the pIC50 is ≥ 8.00.

Take `Cc1ccc(NC(=O)c2ccnc(C(F)(F)F)c2)cc1-c1cc2cnc(NC3CC3)nc2nc1C` [Example 37, N-(3-(2-(cyclopropylamino)-7-methylpyrido[2,3-d]pyrimidin-6-yl)-4-methylphenyl)-2-(trifluoromethyl)isonicotinamide]: the pIC50 under setting [1] was ≥ 8.00.

In the case of `Cc1ccc(NC(=O)c2ccnc(C(F)(F)F)c2)cc1-c1cc2cnc(NC(=O)C3CC3)nc2nc1C` [Example 49, N-(3-(2-(cyclopropanecarboxamido)-7-methylpyrido[2,3-d]pyrimidin-6-yl)-4-methylphenyl)-2-(trifluoromethyl)isonicotinamide], the pIC50 under setting [1] is ≥ 8.00.

With `CNc1ncc2cc(-c3cc(NC(=O)N4CCO[C@@H](CC(F)(F)F)C4)c(F)cc3C)c(C)nc2n1` [Example 26, (S)-N-(2-fluoro-4-methyl-5-(7-methyl-2-(methylamino)pyrido[2,3-d]pyrimidin-6-yl)phenyl)-2-(2,2,2-trifluoroethyl)morpholine-4-carboxamide], the pIC50 was ≥ 8.00.

With `CNc1ncc2cc(-c3cc(NC(=O)N4CC[C@H](OC(F)(F)F)C4)ccc3C)c(C#N)nc2n1` [Example 79], the pIC50 under setting [1] is ≥ 8.00.

With `CNc1ncc2cc(-c3cc(NC(=O)N4CC[C@H](CC(F)(F)F)C4)c(F)cc3C)cnc2n1` [Example 30, (R)-N-(2-fluoro-4-methyl-5-(2-(methylamino)pyrido[2,3-d]pyrimidin-6-yl)phenyl)-3-(2,2,2-trifluoroethyl)pyrrolidine-1-carboxamide], the pIC50 under setting [1] is ≥ 8.00.

On to `CCNc1ncc2cc(-c3cc(NC(=O)c4ccnc(C(F)(F)F)c4)ccc3C)c(C)nc2n1` [Example 35, N-(3-(2-(ethylamino)-7-methylpyrido[2,3-d]pyrimidin-6-yl)-4-methylphenyl)-2-(trifluoromethyl)isonicotinamide], for which the negative-log IC50 (pIC50) under setting [1] was ≥ 8.00.

Consider `CNc1ncc2cc(-c3cc(NC(=O)N4CCC(C(C)(C)C)C4)c(F)cc3C)c(C)nc2n1` (centres unmarked) [Example 21, 3-(tert-butyl)-N-(2-fluoro-4-methyl-5-(7-methyl-2-(methylamino)pyrido[2,3-d]pyrimidin-6-yl)phenyl)pyrrolidine-1-carboxamide], for which the pIC50 under setting [1] is ≥ 8.00.

Take `Cc1ccc(NC(=O)c2ccnc(C(F)(F)F)c2)cc1-c1cc2cnc(NCCN3CCOCC3)nc2nc1C` [Example 38, N-(4-methyl-3-(7-methyl-2-((2-morpholinoethyl)amino)pyrido[2,3-d]pyrimidin-6-yl)phenyl)-2-(trifluoromethyl)isonicotinamide]: under setting [1], the pIC50 is ≥ 8.00.

With `Cc1ccc(NC(=O)c2ccnc(C(F)(F)F)c2)cc1-c1cc2cnc(NCCN3CCCC3)nc2nc1C` [Example 39, N-(4-methyl-3-(7-methyl-2-((2-(pyrrolidin-1-yl)ethyl)amino)pyrido[2,3-d]pyrimidin-6-yl)phenyl)-2-(trifluoromethyl)isonicotinamide], the pIC50 under setting [1] was ≥ 8.00.

As for `CNc1ncc2cc(-c3cc(NC(=O)N4CC[C@@H](CC(F)(F)F)C4)ccc3C)c(C#N)nc2n1` [Example 77, (3S)—N-[3-[7-cyano-2-(methylamino)pyrido[2,3-d]pyrimidin-6-yl]-4-methylphenyl]-3-(2,2,2-trifluoroethyl)pyrrolidine-1-carboxamide], under setting [1], the pIC50 was ≥ 8.00.

`CNc1ncc2cc(-c3cc(NC(=O)c4cc(C)nc(C(F)(F)F)c4)ccc3C)c(C)nc2n1` [Example 34, 2-methyl-N-(4-methyl-3-(7-methyl-2-(methylamino)pyrido[2,3-d]pyrimidin-6-yl)phenyl)-6-(trifluoromethyl)isonicotinamide]: the pIC50 under setting [1] is ≥ 8.00.

For the compound `CNc1ncc2cc(-c3cc(NC(=O)c4ccnc(C(C)(F)F)c4)ccc3C)c(C)nc2n1` [Example 52, 2-(1,1-difluoroethyl)-N-[4-methyl-3-[7-methyl-2-(methylamino)pyrido[2,3-d]pyrimidin-6-yl]phenyl]pyridine-4-carboxamide], under setting [1], the pIC50 is ≥ 8.00.

For `CNc1ncc2cc(-c3cc(NC(=O)N4CCC(C(F)(F)F)C4)ccc3C)cnc2n1` (stereo in doubt) [Example 54, (3R)—N-[4-methyl-3-[2-(methylamino)pyrido[2,3-d]pyrimidin-6-yl]phenyl]3(trifluoromethyl)pyrrolidine-1-carboxamide], the pIC50 under setting [1] is ≥ 8.00.

For the origin of these results see patent US10927111B2, “Inhibitors of RAF kinases” (Kinnate Biopharma Inc., priority 2019, dated 2021).
